The values below come from article PMC10537604, “Development and Assessment of 1,5–Diarylpyrazole/Oxime Hybrids Targeting EGFR and JNK–2 as Antiproliferative Agents: A Comprehensive Study through Synthesis, Molecular Docking, and Evaluation” (Molecules, 2023).

In experiment [1] the test system is human pancreatic cancer cell line SUIT-2. Put plainly: WST-8 antiproliferative assay, SUIT-2. The class given is cell-based. How it is done:
(§1) Compounds 7a–j, 8a–j, 9a–c, and 10a–c were evaluated for in vitro anticancer activities against five different cancer cell lines, namely, human colorectal adenocarcinoma cell lines DLD-1, human cervical cancer cell line Hela, human pancreatic cancer cell line SUIT-2, human myelogenous leukemia cell line K562, and human hepatocellular carcinoma cell line HepG2 using WST-8 assay at concentrations of 100 µM to investigate the growth inhibition percent (GI%) of each compound using daunorubicin as a reference drug. […]. […] So, as a conclusion on the SAR study of those compounds as antiproliferative agents, the oxime moiety potentiated the anticancer activity and electron donating groups on R1 and R2 played an important role on this activity. Moreover, the sulfamoyl moiety on R3 seems to play a potential role in the activity of the prepared compounds (Table 1).
(§2) All selected compounds and daunorubicin were recorded as the minimum concentration required to inhibit half cell growth (IC50) and the results are listed in Table 2.
(§3) Evaluation of anticancer activity was performed according to the standard water-soluble tetrazolium-8 (WST-8) assay at the Faculty of Engineering, Yamagata University, Yonezawa, Japan, using an MTP-310 absorbance microplate reader. The EGFR inhibitory assay was carried out at the Faculty of Engineering, Yamagata University, Yonezawa, Japan, according to the protocol enzyme linked immunosorbent assay (ELISA) kits (Douset sandwich ELISA test, recombinant mouse EGFR). The JNK-2 inhibitory assay was performed at the Faculty of Engineering, Yamagata University, Yonezawa, Japan, according to the protocol of enzyme-linked immunosorbent assay (ELISA), the assay was carried out using the JNK-2 kit (Simple Step ELISA, pT183/Y185, Abcam Company, Cambridge, CB2 0AX, UK). Apoptosis and cell cycle analysis was performed at Faculty of medicine, Yamagata University, Yamagata, Japan, using BD FACS melody. Molecular docking was performed at the Nano Medical Engineering Laboratory, RIKEN Cluster for Pioneering Researchers, RIEKN, Japan, using ICM-Pro 3.8 software (MolSoft L.L.C., San Diego, CA, USA).
(§4) According to the standard water-soluble tetrazolium-8 (WST-8) assay, the current synthesized compounds have been tested for their anticancer activities against different five cancer cell lines; DLD-1, Hela, K562, SUIT-2, and HepG2 and daunorubicin was used as reference drug by the WST-8 assay. The five cells were maintained in a suspension culture, (Dulbecco’s modified eagle medium (DMEM) for SUIT-2, Hela, and HepG2 or PRIM for K562 and DLD), supplemented with 5% FBS (Fetal Bovine Serum) containing 1% of a penicillin-streptomycin (1:1) mixture. A 100 μL aliquot of cells (10,000 cells/mL) was added to a 96 well plate and incubated for 24 h at 37 °C in a humidified incubator containing 5% CO2 in the air. After 24 h, a 10 μL aliquot of test compound (concentrations varying in the range of 10–150 µM) was added to each of the 96 wells and incubated for 24 h. Then A 10 μL WST-8 solution (mixture of WST-8 and 1-methoxy PMS) was added to each well and the incubation continued for 3 h. The visible absorbance at 450 nm and 630 nm as the reference wavelength of each well was quantified using an MTP-310 absorbance microplate reader. Daunorubicin was used as a positive control. The results of cytotoxicity were recorded as growth inhibition percentages and as IC50 values.

Experiment [2] has as its system human colorectal adenocarcinoma cell line DLD-1. The experiment is described as follows: WST-8 antiproliferative assay, DLD-1. The class given is cell-based. How it is done:
as §1, §2, §3, §4

The mark [3] stands for this setting: SUIT-2, 100 µM, WST-8 assay, read-out: Growth Inhibition (GI%) SUIT-2.
The mark [4] stands for this setting: DLD-1, 100 µM, WST-8 assay, read-out: Growth Inhibition (GI%) DLD-1.

In general, inhibition refers to the drop in the measured response relative to a control, in per cent. One may read the IC50 as the midpoint of a concentration-inhibition curve.

Like-named read-outs stand apart in the source and are kept apart here.

For `C/C(=N\O)c1ccc(NC(=O)c2cc(-c3ccccc3)n(-c3ccc(S(N)(=O)=O)cc3)n2)cc1` [Compound 10a, (E)–N–(4–(1–(Hydroxyimino)ethyl)phenyl)–5–phenyl–1–(4–sulfamoylphenyl)–1H–pyrazole–3–carboxamide], the inhibition at 100 µM was determined as 88% in experiment [1] (setting [3]) and 99% in experiment [2] (setting [4]).

Turning to `COc1cc(/C(C)=N/O)ccc1OC(=O)c1cc(-c2ccccc2)n(-c2ccc(S(N)(=O)=O)cc2)n1` [Compound 8f, (E)–4–(1–(Hydroxyimino)ethyl)–2–methoxyphenyl 5–phenyl–1–(4–sulfamoyl phenyl)–1H–pyrazole–3–carboxylate], the results for the inhibition at 100 µM in experiment [1] (setting [3]) and in experiment [2] (setting [4]) were 95% and 72.9%, respectively.

Turning to `COc1cc(/C(C)=N/O)ccc1OC(=O)c1cc(-c2ccc(C)cc2)n(-c2ccccc2)n1` [Compound 8b, (E)–4–(1–(Hydroxyimino)ethyl)–2–methoxyphenyl 1–phenyl–5–p–tolyl–1H–pyrazole–3–carboxylate], the figures for the inhibition at 100 µM in experiment [1] (setting [3]) and in experiment [2] (setting [4]) were 102% and 92%, respectively.

Turning to `COc1ccc(-c2cc(C(=O)Nc3ccc(/C(C)=N/O)cc3)nn2-c2ccc(S(N)(=O)=O)cc2)cc1` [Compound 10b, (E)–N–(4–(1–(Hydroxyimino)ethyl)phenyl)–5–(4–methoxyphenyl)–1–(4–sulfamoylphenyl)–1H–pyrazole–3–carboxamide], the inhibition at 100 µM came to 50% in experiment [1] (setting [3]) and 72.5% in experiment [2] (setting [4]).

On to `COc1ccc(-c2cc(C(=O)Nc3ccc(/C(C)=N/O)cc3)nn2-c2ccc(S(N)(=O)=O)cc2)cc1OC` [Compound 10c, (E)–5–(3,4–Dimethoxyphenyl)–N–(4–(1–(hydroxyimino)ethyl)phenyl)–1–(4–sulfamoyl phenyl)–1H–pyrazole–3–carboxamide], for which the inhibition at 100 µM in experiment [1] (setting [3]) came out at 103%; in experiment [2] (setting [4]) it was 92.4%.

As to `COc1ccc(-c2cc(C(=O)Oc3ccc(/C(C)=N/O)cc3OC)nn2-c2ccccc2)cc1OC` [Compound 8e, (E)–4–(1–(Hydroxyimino)ethyl)–2–methoxyphenyl 5–(3,4–dimethoxy phenyl)–1–phenyl–1H–pyrazole–3–carboxylate], the inhibition at 100 µM in experiment [1] (setting [3]) was found to be 83%; in experiment [2] (setting [4]) it was 29.2%.

`COc1cc(/C(C)=N/O)ccc1OC(=O)c1cc(-c2ccc(C)cc2)n(-c2ccc(S(N)(=O)=O)cc2)n1` [Compound 8g, (E)–4–(1–(Hydroxyimino)ethyl)–2–methoxyphenyl 1–(4–sulfamoylphenyl)–5–p–tolyl–1H–pyrazole–3–carboxylate]: the inhibition at 100 µM in experiment [1] (setting [3]) amounted to 96%; in experiment [2] (setting [4]) it was 85.8%.

Turning to `COc1cc(/C(C)=N/O)ccc1OC(=O)c1cc(-c2ccc(Cl)cc2)n(-c2ccc(S(N)(=O)=O)cc2)n1` [Compound 8i, (E)–4–(1–(Hydroxyimino)ethyl)–2–methoxyphenyl 5–(4–chlorophenyl)–1–(4–sulfamoyl phenyl)–1H–pyrazole–3–carboxylate], the values for the inhibition at 100 µM in experiment [1] (setting [3]) and in experiment [2] (setting [4]) were 98% and 34%, respectively.

In the case of `COc1ccc(-c2cc(C(=O)Oc3ccc(/C(C)=N/O)cc3OC)nn2-c2ccc(S(N)(=O)=O)cc2)cc1` [Compound 8h, (E)–4–(1–(Hydroxyimino)ethyl)–2–methoxyphenyl 5–(4–methoxyphenyl)–1–(4–sulfamoyl phenyl)–1H–pyrazole–3–carboxylate], the inhibition at 100 µM in experiment [1] (setting [3]) was determined as 73%; in experiment [2] (setting [4]), 52.3%.

With `COc1cc(/C(C)=N/O)ccc1OC(=O)c1cc(-c2ccc(Cl)cc2)n(-c2ccccc2)n1` [Compound 8d, (E)–4–(1–(Hydroxyimino)ethyl)–2–methoxyphenyl 5–(4–chlorophenyl)–1–phenyl–1H–pyrazole–3–carboxylate], the inhibition at 100 µM in experiment [1] (SUIT-2, read-out: Growth Inhibition (GI%) SUIT-2) is 77%; in experiment [2] (DLD-1, read-out: Growth Inhibition (GI%) DLD-1), 72%. In addition, the IC50 in experiment [2] (DLD-1, read-out: IC50 DLD-1) came out at 14.4 µM.

As for `COc1cc(/C(C)=N/O)ccc1OC(=O)c1cc(-c2ccccc2)n(-c2ccccc2)n1` [Compound 8a, (E)–4–(1–(Hydroxyimino)ethyl)2–methoxyphenyl 1,5–diphenyl–1H–pyrazole–3–carboxylate], the figures for the inhibition at 100 µM in experiment [1] (setting [3]) and in experiment [2] (setting [4]) were 77% and 25.7%, respectively.
